The subject of series [1] is Mycobacterium terrae bacteria. The series is described as follows: bacterial suspension test. Format: cell-based. As to conditions: for Germicidal Efficacy: summary Table 14. The protocol: In Examples 1 to 3, which follow, several germicidal solutions containing either the 4-fluoro-, 4-chloro-, or 4-bromo-phthalaldehyde compound were tested to determine their effectiveness in killing at least 1×10^6/mL of Mycobacterium terrae bacteria using a bacterial suspension test. The bacterial suspension test that was employed is described in Section VII.
The solutions were prepared by adding the appropriate amounts of the germicidal compounds to an aqueous solution. Unless otherwise mentioned all concentrations reported herein are expressed in (w/v)%. The pH of the solution was not adjusted. The tests were conducted at a temperature of about 20° C. (room temperature). The results are presented in terms of log reductions/mL. It is understood that these examples, as well as the other examples herein, are to be construed as merely illustrative, and not limiting.
In this test method, 9 mL of the germicide to be tested is placed in a tube, put into a water bath and allowed to come to the desired temperature. One mL of the test organism, including at least 7 logs/mL of Mycobacterium terrae bacteria, is added to the 9 mL of the germicide to be tested. […] It will be appreciated by those skilled in the art that other concentrations may be utilized by proper dilution and accounting.
At appropriate time intervals, 1 mL aliquots of the germicide-cell suspension were removed and added directly into 9 mL of a 1% glycine solution (neutralizer) and mixed thoroughly to neutralize the germicide in the transferred suspension. The glycine solution was prepared from solid glycine, which is available from VWR Scientific Products, among others. The above-identified 10 mL neutralized solution was then poured through a membrane filter having an average pore size of 0.45 micrometers. The filter was then rinsed twice with at least 150 mL of the 1% glycine solution per rinse. The filter was then placed on an agar plate and incubated for twenty-one days at 37° C. In the above procedure, if dilution was needed, then the 1 mL germicidal-cell suspension was diluted in 99 mL of a phosphate buffer before addition to the 9 mL of the 1% glycine solution. The phosphate buffer was DiLu-LoK™ Butterfields Phosphate Buffer, available from Hardy Diagnostics, of Santa Maria, Calif.
The surviving colonies are then counted. The data is plotted as S/So vs. time. So is the initial count of the bacteria in the above 10 mL solution which is at least 10^6 bacteria/mL, and S is the surviving bacteria from the above filter on the agar plate. The results of the experiments were presented in terms of log reductions. Log reduction is the difference between log(So) and log(S). As one example, if log(So)=6.2, and if there were 100 survivors, then the log(S)=2, and the log reduction was reported as 4.2.

Series [2] can be described thus: solubility in water. Format: physicochemical.

Read-outs that look alike come from different tables or passages of the source.

Take `O=Cc1ccc(Cl)cc1C=O` [4-chloro-phthalaldehyde]: the “Log Reductions/mL” value in series [1] (2.7 w/v % (in 20% isopropanol), 20° C., 5 min) was “Total Kill”. Further, in series [1] (in five minutes, 20° C.), the “concentration effective to achieve a total kill of all bacteria” value lay within 0.2 to 2.7%.

For `O=Cc1cccc(C=O)c1` [IPA, isophthalaldehyde, reference compound], the “Log Reductions/mL” value is on record as “Confluent” in series [1] (0.3%, dissolved in 20% isopropanol, 20° C., 5 min (Table 11)) and “Confluent” in series [1] (0.3%, dissolved in 20% isopropanol, 20° C., 5 min (Table 15)). The “Germicidal Efficacy” value in series [1] is reported as “Poor”.

Take `O=CC(C=O)c1cccc(C(=O)O)c1[N+](=O)[O-]` [3-(1-formyl-2-oxoethyl)-2-nitro-benzoic acid]: the log reduction at 2.1 % in series [1] (Mycolicibacter terrae, 5 min, Saturated (˜2.1% w/v), 5 min, 20° C., read-out: Log Reductions/mL) came to 4.

For 4-pyridinyl-propanedial, in series [1] (Saturated (˜2.3% w/v), 5 min, 20° C.), the “Log Reductions/mL” value worked out at 4.0 log reductions/mL.

For `O=Cc1ccc(C=O)cc1` [TPA, terephthalaldehyde, reference compound], the “Log Reductions/mL” value in series [1] (0.2%, dissolved in 20% isopropanol, 20° C., 5 min) was “Confluent”. The “Germicidal Efficacy” value in series [1] is on record as “Poor”.

Take `O=Cc1ccc(F)cc1C=O` [4-fluoro-phthalaldehyde]: in series [1] (0.25%, 20° C., 60 minutes exposure), the “Log Reductions/mL” value is listed as “Total Kill”. Further, the “time to achieve a total kill of the bacteria” value in series [1] (about 0.25%, 20° C.) was 30 to 60 min.

In the case of `O=Cc1ccccc1C(O)S(=O)(=O)[O-].[Na+]` (stereo not shown) [(2-formyl-phenyl)-hydroxy-methane sulfonic acid, sodium salt], in series [1] (9.1%, 20° C., 5 min), the “Log Reductions/mL” value is “Confluent”.

For `O=Cc1ccccc1C=O` [OPA, phthalaldehyde, reference compound], the log reduction at 0.14 % in series [1] (Mycolicibacter terrae, 5 min, 0.14%, 20° C., 5 min, read-out: Log Reductions/mL) was determined as 4.8. Besides, the log reduction at 0.28 % in series [1] (Mycolicibacter terrae, 5 min, 0.28%, 20° C., 5 min, read-out: Log Reductions/mL) came to 5.5. Further, the “Germicidal Efficacy” value in series [1] was “Good”. Also, in series [2], the solubility in water entry was “about 5 % by weight”.

For `O=CC(c1ccccc1)C(O)S(=O)(=O)[O-].[Na+]` (stereo not shown) [1-hydroxy-3-oxo-2-phenyl-propane-1-sulfonic acid, sodium salt], the “Log Reductions/mL” value in series [1] (0.6%, 20° C., 60 min) is “Total Kill”. In addition, the log reduction at 0.6 % in series [1] (Mycolicibacter terrae, 5 min, 0.6%, 20° C., 5 min, read-out: Log Reductions/mL) was 2.1; in series [1] (Mycolicibacter terrae, 20 min, 0.6%, 20° C., 20 min, read-out: Log Reductions/mL) it was 2.5; in series [1] (Mycolicibacter terrae, 25 min, 0.6%, 20° C., 25 min, read-out: Log Reductions/mL) it was 2.9.

For the molecule `O=Cc1ccc(Br)cc1C=O` [4-bromo-phthalaldehyde], in series [1] (0.1%, 20° C., 30 minutes exposure), the “Log Reductions/mL” value is recorded as “Total Kill”. Besides, the “time to achieve a total kill of the bacteria” value in series [1] (about 0.1%, 20° C.) is 10 to 30 min.

Regarding `O=CC(C=O)c1ccccc1` [phenyl-propanedial], the “Log Reductions/mL” value is “Total Kill” in series [1] (0.4%, 20° C., 60 min); “Total Kill” in series [1] (0.44%, 20° C., 60 min); “Total Kill” in series [1] (0.66%, 20° C., 15 min); “Total Kill” in series [1] (0.7%, 20° C., 15 min); 4.5 log reductions/mL in series [1] ((˜1%), 20° C., 5 min). Moreover, the log reduction at 0.66 % in series [1] (Mycolicibacter terrae, 5 min, 0.66%, 20° C., 5 min, read-out: Log Reductions/mL) was below 2.5; in series [1] (Mycolicibacter terrae, 10 min, 0.66%, 20° C., 10 min, read-out: Log Reductions/mL) it was 2.5. Besides, the log reduction at 1 % in series [1] (Mycolicibacter terrae, 5 min, ˜1%, 20° C., 5 min (Table 15), read-out: Log Reductions/mL) stood at 4.5. The log reduction at 0.7 % in series [1] (Mycolicibacter terrae, 10 min, 0.7%, 20° C., 10 min, read-out: Log Reductions/mL) was found to be 2.5. Further, the log reduction at 0.3 % in series [1] (Mycolicibacter terrae, 0.5 h, 0.3%, 20° C., 30 min, read-out: Log Reductions/mL) worked out at 2.1. In series [1] (Mycolicibacter terrae, 0.5 h, 0.33%, 20° C., 30 min, read-out: Log Reductions/mL), the log reduction at 0.33 % came to 2.1. Besides, the log reduction at 0.4 % in series [1] (Mycolicibacter terrae, 0.5 h, 0.4%, 20° C., 30 min, read-out: Log Reductions/mL) came out at 2.5. The log reduction at 0.44 % in series [1] (Mycolicibacter terrae, 0.5 h, 0.44%, 20° C., 30 min, read-out: Log Reductions/mL) came out at 2.5. Also, the log reduction at 0.2 % in series [1] (Mycolicibacter terrae, 1 h, 0.2%, 20° C., 60 min, read-out: Log Reductions/mL) stood at 2.1. Besides, in series [1] (Mycolicibacter terrae, 1 h, 0.22%, 20° C., 60 min, read-out: Log Reductions/mL), the log reduction at 0.22 % turned out to be 2.1. Also, the “concentration effective to achieve a total kill” value in series [1] (within 15 minutes, 20° C.) lay in the range of 0.4 to 0.7%. Moreover, in series [1] (within 60 minutes, 20° C.), the “concentration effective to achieve a total kill of the bacteria” value was in the range of 0.3 to 0.4%. The solubility in water result in series [2] is “about 1%”.

These data come from patent US20050171215A1, “Germicidal compositions containing halogenated phthalaldehyes, and methods of using such compositions for disinfection or sterilization” (Ethicon, Inc., priority 2004, published 2005).
